What all share (assay type): cell-based
One assay concerns rat cortical neurons. Put plainly: Neurite outgrowth assay. The conditions noted are these: Cortical neurone, 1 hour treatment at DIV 4, analysed DIV 7, fold vs DMSO control. In a few lines: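 Embryonic day 18 rat cortical neurons, 20,000 cells/well in Neurobasal/B27, were exposed at DIV 4 to 10 μM compound for 1 hour, then washed out. At DIV 7, β-III-tubulin immunostaining and automated imaging gave neurite length, branch points, root and extremity counts, reported as fold-change versus DMSO; triplicates.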

In assay [1] the test system is 5HT2A sensor. Description: 5HT2A sensor assay, antagonist mode (sLight1.3s HEK293T stable line). The conditions noted are these: relative to 5-HT at 100 nM; for 5HT2A Antagonist mean @ 100 nM (%): 100 nM compound; for 5HT2A Antagonist mean @ 10 μM (%): 10 μM compound; for 5HT2A Antagonist mean @ 100 μM (%): 100 μM compound. In a few lines:
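Inactivation score is computed from membrane dFF as (dFF(compound+5HT)−dFF(5HT))/dFF(5HT), with HBSS-only fluorescence as Fapo. Final concentrations: 5-HT 100 nM added first, then compound at 100 nM, 10 μM or 100 μM in 0.1% DMSO. Triplicates; FITC imaging, 5 fields per well.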

The subject of assay [2] is 5HT2A sensor. Put plainly: 5HT2A sensor assay, agonist mode (sLight1.3s HEK293T stable line). To be noted: percent relative to 5-HT at 100 uM; for 5HT2A Agonist mean @ 100 nM (%): 100 nM compound; for 5HT2A Agonist mean @ 10 μM (%): 10 μM compound; for 5HT2A Agonist mean @ 100 μM (%): 100 μM compound. In a few lines:
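Agonist mode in HEK293T cells stably expressing the sLight1.3 5HT2A sensor, washed into HBSS; compounds at final 100 μM, 10 μM and 100 nM (0.1% DMSO), triplicate wells. Membrane fluorescence (ex 460, em 512-542 nm) imaged before and after addition; dFF=(Fsat−Fapo)/Fapo, expressed as percent activation (DMSO=0, 5HT=100).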

The mark [3] stands for this setting: read-out: Neurite Average Length @ 10 μM.
Where [4] appears, read: read-out: Neurite Branch Points: @ 10 μM.

The values below come from patent US11254640B2, “N-substituted indoles and other heterocycles for treating brain disorders” (The Regents of the University of California, priority 2019, dated 2022).

Where two headings read alike, the source gives them in different places.

For the compound `COc1ccc2ccn(CCN(C)C)c2c1` [Example 5, 2-(6-methoxy-1H-indol-1-yl)-N,N-dimethylethan-1-amine], the fold induction at 10 µM with rat cortical neurons (setting [3]) fell in the range of 1.5 to 3. The fold induction at 10 µM with rat cortical neurons (setting [4]) lay within 1.5 to 3. In addition, in the assay with 5HT2A sensor [1], the “5HT2A Antagonist mean @ 100 nM (%)” value is listed as “B (inhibits 5HT response by 75% to 100%)”, the “5HT2A Antagonist mean @ 10 μM (%)” value is “B (inhibits 5HT response by 75% to 100%)” and the “5HT2A Antagonist mean @ 100 μM (%)” value is on record as “B (inhibits 5HT response by 75% to 100%)”. Besides, in the assay on 5HT2A sensor [2], the “5HT2A Agonist mean @ 100 nM (%)” value is “B (does not activate 5HT2A sensor assay in agonist mode)”, the “5HT2A Agonist mean @ 10 μM (%)” value is reported as “B (does not activate 5HT2A sensor assay in agonist mode)” and the “5HT2A Agonist mean @ 100 μM (%)” value was “A (activates 5HT2A sensor assay in agonist mode)”.

For `COc1ccc2c(ccn2C[C@@H](C)N(C)C)c1` [Example 59, (R)-1-(5-methoxy-1H-indol-1-yl)-N,N-dimethylpropan-2-amine], in the assay on rat cortical neurons (setting [3]), the fold induction at 10 µM is 1.5 to 3. Besides, the fold induction at 10 µM in the assay with rat cortical neurons (setting [4]) was more than 3. For the same compound, in the assay with 5HT2A sensor [1], the “5HT2A Antagonist mean @ 100 nM (%)” value is reported as “B (inhibits 5HT response by 75% to 100%)”, the “5HT2A Antagonist mean @ 10 μM (%)” value was “A (inhibits 5HT response by >100%)” and the “5HT2A Antagonist mean @ 100 μM (%)” value is given as “A (inhibits 5HT response by >100%)”. For the same compound, in the assay on 5HT2A sensor [2], the “5HT2A Agonist mean @ 100 nM (%)” value is reported as “B (does not activate 5HT2A sensor assay in agonist mode)”, the “5HT2A Agonist mean @ 10 μM (%)” value is recorded as “B (does not activate 5HT2A sensor assay in agonist mode)” and the “5HT2A Agonist mean @ 100 μM (%)” value is recorded as “B (does not activate 5HT2A sensor assay in agonist mode)”.

On to `COc1cccc2ccn(CCN(C)C)c12.O=C(O)/C=C/C(=O)O` [Example 6, 2-(7-methoxy-1H-indol-1-yl)-N,N-dimethylethan-1-amine], for which, in the assay with rat cortical neurons (setting [3]), the fold induction at 10 µM lay within 1.5 to 3. The fold induction at 10 µM in the assay on rat cortical neurons (setting [4]) lay within 1.5 to 3. Besides, in the assay with 5HT2A sensor [1], the “5HT2A Antagonist mean @ 100 nM (%)” value is “A (inhibits 5HT response by >100%)”, the “5HT2A Antagonist mean @ 10 μM (%)” value is “A (inhibits 5HT response by >100%)” and the “5HT2A Antagonist mean @ 100 μM (%)” value is given as “A (inhibits 5HT response by >100%)”. Moreover, in the assay on 5HT2A sensor [2], the “5HT2A Agonist mean @ 100 nM (%)” value is listed as “B (does not activate 5HT2A sensor assay in agonist mode)”, the “5HT2A Agonist mean @ 10 μM (%)” value is “B (does not activate 5HT2A sensor assay in agonist mode)” and the “5HT2A Agonist mean @ 100 μM (%)” value is “B (does not activate 5HT2A sensor assay in agonist mode)”.

Consider `COc1ccc2c(ccn2CCN(C)C)c1.O=C(O)/C=C/C(=O)O` [Example 4, 2-(5-methoxy-1H-indol-1-yl)-N,N-dimethylethan-1-amine], for which the fold induction at 10 µM with rat cortical neurons (setting [3]) was in the range of 1.5 to 3. Also, the fold induction at 10 µM in the assay on rat cortical neurons (setting [4]) lay in the range of 1.5 to 3. Moreover, in the assay with 5HT2A sensor [1], the “5HT2A Antagonist mean @ 100 nM (%)” value is recorded as “C (inhibits 5HT response by <75%)”, the “5HT2A Antagonist mean @ 10 μM (%)” value is “B (inhibits 5HT response by 75% to 100%)” and the “5HT2A Antagonist mean @ 100 μM (%)” value is “B (inhibits 5HT response by 75% to 100%)”. In addition, in the assay with 5HT2A sensor [2], the “5HT2A Agonist mean @ 100 nM (%)” value was “B (does not activate 5HT2A sensor assay in agonist mode)”, the “5HT2A Agonist mean @ 10 μM (%)” value is given as “B (does not activate 5HT2A sensor assay in agonist mode)” and the “5HT2A Agonist mean @ 100 μM (%)” value is “A (activates 5HT2A sensor assay in agonist mode)”.

For the compound `C[C@H](Cn1ccc2cc(F)ccc21)N(C)C` [Example 60, (R)-1-(5-fluoro-1H-indol-1-yl)-N,N-dimethylpropan-2-amine], in the assay on rat cortical neurons (setting [3]), the fold induction at 10 µM lay in the range of 1.5 to 3. For the same compound, the fold induction at 10 µM with rat cortical neurons (setting [4]) was 1.5 to 3. Further, in the assay with 5HT2A sensor [1], the “5HT2A Antagonist mean @ 100 nM (%)” value is “C (inhibits 5HT response by <75%)”, the “5HT2A Antagonist mean @ 10 μM (%)” value is listed as “B (inhibits 5HT response by 75% to 100%)” and the “5HT2A Antagonist mean @ 100 μM (%)” value is reported as “B (inhibits 5HT response by 75% to 100%)”. Also, in the assay with 5HT2A sensor [2], the “5HT2A Agonist mean @ 100 nM (%)” value is listed as “B (does not activate 5HT2A sensor assay in agonist mode)”, the “5HT2A Agonist mean @ 10 μM (%)” value was “B (does not activate 5HT2A sensor assay in agonist mode)” and the “5HT2A Agonist mean @ 100 μM (%)” value was “A (activates 5HT2A sensor assay in agonist mode)”.

`COc1cccc2c1ccn2CCN(C)C.O=C(O)/C=C/C(=O)O` [Example 3, 2-(4-methoxy-1H-indol-1-yl)-N,N-dimethylethan-1-amine]: in the assay with rat cortical neurons (setting [3]), the fold induction at 10 µM was less than 1.5. The fold induction at 10 µM with rat cortical neurons (setting [4]) is 1.5 to 3. In the assay on 5HT2A sensor [1], the “5HT2A Antagonist mean @ 100 nM (%)” value is reported as “A (inhibits 5HT response by >100%)”, the “5HT2A Antagonist mean @ 10 μM (%)” value is listed as “A (inhibits 5HT response by >100%)” and the “5HT2A Antagonist mean @ 100 μM (%)” value is reported as “A (inhibits 5HT response by >100%)”. In addition, in the assay with 5HT2A sensor [2], the “5HT2A Agonist mean @ 100 nM (%)” value is “B (does not activate 5HT2A sensor assay in agonist mode)”, the “5HT2A Agonist mean @ 10 μM (%)” value was “B (does not activate 5HT2A sensor assay in agonist mode)” and the “5HT2A Agonist mean @ 100 μM (%)” value was “B (does not activate 5HT2A sensor assay in agonist mode)”.
